In patent US8614205B2, “Glutamate receptor modulators and therapeutic agents” (priority 2009, dated 2013):
“And” between values parts separate entries of the source, which are not always exact repeats. Identical values can stand only once. Like-named read-outs stand apart in the source and are kept apart here. Blank lines part the entries; values can stand above or below the compound they belong to.

How the values were obtained:
mGluR5 = molecular target: T1, mGluR5 (Homo sapiens, UniProt P41594); test: aequorin calcium assay, negative allosteric modulation of mGluR5; type: cell-based
T1 construct: expression induced with doxycycline
Experimental: (§1) The ability of test compound to ameliorate the efflux of calcium cations (Ca^++) in the presence of agonist (glutamate or quisqualate) is measured by detection of light emitted by the luminescent protein aequorin triggered by binding of Ca^++. Aequorin is a photoprotein isolated from luminescent jellyfish (like various Aequorea species e.g. Aequorea victoria). Aequorin is composed of two distinct units, the apoprotein apoaequorin, with an approximate molecular weight of 22 kDa, and the prosthetic group, coelenterazine, responsible for emission of light. In the presence of molecular oxygen the two components of aequorin assemble spontaneously, forming the functional protein. Four EF-hand type regions have been identified in the structure of Aequorin and at least 3 of them function as binding sites for Ca+2 ions: Ca+2 binding to these EF hands triggers a conformational change of the protein, that leads it to oxidize its prosthetic group, coelenterazine, into excited coelenteramide and CO2. As the excited coelenteramide relaxes to the ground state, blue light (wavelength=469 nm) is emitted and can be measured by a luminometer. Negative allosteric modulator activity of test compound is expressed as a percentage of the stimulation of reference agonist (glutamate) activity at its EC80 concentration. Assay of Compounds was performed at Euroscreen SA, Gosselies, Belgium.
(§2) Cells stably transfected with mGlu1 or mGlu5 were grown 18 hours prior to the test in culture medium containing 600 ng/ml doxycycline, then were detached by gentle flushing with PBS-EDTA, recovered by centrifugation and resuspended in “assay buffer” (HBSS, 2.1 mM CaCl2, 3 μg/ml GPT (Glutamate-Pyruvate transaminase), 4 mM MEM Sodium Pyruvate, 0.1% BSA, protease free). Cells were incubated at room temperature for at least 4 h with coelenterazine-h. Dose response curves were performed using mGluR1 cells with the orthosteric agonist glutamate and negative allosteric modulator JNJ16259685. Dose response curves were performed using mGluR5 cells with the orthosteric agonist glutamate and negative allosteric modulator MPEP. For agonist testing, 30 μl of cell suspension were mixed with 30 μl of test compound or reference agonist in a 384-well plate. The resulting emission of light was recorded using the Hamamatsu Functional Drug Screening System 6000 (FDSS 6000). For negative allosteric modulator testing, 60 μl of the resulting cell suspension containing the test compound was mixed with 30 μl of the reference agonist at EC80 following an incubation of 3 min after the first injection. The resulting emission of light was recorded using FDSS 6000. […] Plates also contained the reference agonist at a concentration equivalent to the EC80 obtained during the test validation. Negative allosteric modulator activity of test compound was expressed as a percentage of the stimulation of reference agonist activity at its EC80 concentration.

mGluR1 [1] = molecular target: T2, mGluR1 (Homo sapiens, UniProt Q13255); test: aequorin calcium assay, negative allosteric modulation of mGluR1; type: cell-based; details: thiazole derivatives of benzamide, in vitro activity; read-out: binding at mGluR1
T2 construct: expression induced with doxycycline

mGluR1 [2] = molecular target: T2, mGluR1; test: as above; type: cell-based; details: aequorin assay, agonist at EC80; 10000 = no activity observed at 10,000 nM
Experimental: as §1, §2

[3] = system: hyperalgesia in partial sciatic nerve ligation rat; test: partial sciatic nerve ligation (PSN) model of neuropathic pain, paw withdrawal method; type: in vivo; parameters: AUC (0-5): unit not given beside the values; details: for % MPE (0-100) 1 hr / Paw withdrawal thresholds (g; raw data) 1 hr / Raw MPE (%) 1 hr / % MPE (0-100) 3 hrs / Paw withdrawal thresholds (g; raw data) 3 hrs / Raw MPE (%) 3 hrs / % MPE (0-100) 5 hrs / Paw withdrawal thresholds (g; raw data) 5 hrs / Raw MPE (%) 5 hrs / % MPE (0-100) 24 hrs / Paw withdrawal thresholds (g; raw data) 24 hrs / Raw MPE (%) 24 hrs / AUC (0-5): PSN Sx rat
Experimental: Briefly, under gas anesthesia, the skin and muscles of the thigh were reflected to expose the sciatic nerve. About one-third to one-half of the cross-sectional area of the nerve was tightly ligated using a 7-0 nylon suture. The incision was closed in layers (suture for muscle, surgical adhesive for skin). […] Treated rats were assayed at 1, 3, 5, and 24 hr using the paw withdrawal method (L. Randall and J. Selitto, 1957, Arch. Int. Pharmacodynam., 111:409-19). […] The Partial sciatic nerve ligation assay was performed at Eurofins/Product Safety Laboratories (Dayton, N.J.).
Animals were housed in cages which conform to the size recommendations in the most recent NIH Guide for the Care and Use of Laboratory Animals. […] The animals were fed Purina Rodent Chow #5012. The animals were acclimated to the facility for 7 days prior to the study. A pre-operative baseline paw withdrawal measure was collected for all rats. […] After recovery, a pre-dosing baseline paw withdrawal threshold was collected for all rats. […] Rats were lightly anesthetized and treated with test article or vehicle. Paw withdrawal thresholds were determined at one, three, five, and 24 hours post dosing. […] Briefly, under gas anesthesia, the skin and muscles of the thigh were reflected to expose the sciatic nerve. About one third to one half of the cross-sectional area of the nerve was tightly ligated using a 7-0 nylon suture. The incision was closed in layers (suture for muscle, surgical adhesive for skin). Test article or vehicle was administered by transcutaneous injection (C. Mestre et al., 1994, J. Pharm. Tox. Meth., 32:197-200). Briefly, the rat was lightly anesthetized and placed to flex the lower lumbar vertebrae. After palpating the vertebral processes, a 26 gauge needle was inserted through a vertebral interspace. The presence of a tail flick was considered validation of the needle placement; the solution was then injected. Paw withdrawal thresholds were assessed using a paw pressure device (L. O. Randall & J. J. Selitto, 1957, Arch. Int. Pharmacodyn., 111:409-19). The behavioral endpoint was defined as paw withdrawal. Data was analyzed by two-way analysis of variance (repeated measures) with Bonferroni tests at individual time points. Paw withdrawal threshold raw values were used for the analysis, and each route of administration was analyzed separately. Vehicle-treated groups were used as the statistical comparison groups.

[4] = thiazole derivatives of benzamide, in vitro activity, read-out: binding at mGluR5
[5] = 10 μg intrathecal, group Average (N 6)
[6] = 10 μg intrathecal, individual rat, listed as SND 121
[7] = 49 μg intrathecal, group Average (N 6)
[8] = 49 μg intrathecal, individual rat, listed as SND 121

T2 sequence (Q13255 19-1194): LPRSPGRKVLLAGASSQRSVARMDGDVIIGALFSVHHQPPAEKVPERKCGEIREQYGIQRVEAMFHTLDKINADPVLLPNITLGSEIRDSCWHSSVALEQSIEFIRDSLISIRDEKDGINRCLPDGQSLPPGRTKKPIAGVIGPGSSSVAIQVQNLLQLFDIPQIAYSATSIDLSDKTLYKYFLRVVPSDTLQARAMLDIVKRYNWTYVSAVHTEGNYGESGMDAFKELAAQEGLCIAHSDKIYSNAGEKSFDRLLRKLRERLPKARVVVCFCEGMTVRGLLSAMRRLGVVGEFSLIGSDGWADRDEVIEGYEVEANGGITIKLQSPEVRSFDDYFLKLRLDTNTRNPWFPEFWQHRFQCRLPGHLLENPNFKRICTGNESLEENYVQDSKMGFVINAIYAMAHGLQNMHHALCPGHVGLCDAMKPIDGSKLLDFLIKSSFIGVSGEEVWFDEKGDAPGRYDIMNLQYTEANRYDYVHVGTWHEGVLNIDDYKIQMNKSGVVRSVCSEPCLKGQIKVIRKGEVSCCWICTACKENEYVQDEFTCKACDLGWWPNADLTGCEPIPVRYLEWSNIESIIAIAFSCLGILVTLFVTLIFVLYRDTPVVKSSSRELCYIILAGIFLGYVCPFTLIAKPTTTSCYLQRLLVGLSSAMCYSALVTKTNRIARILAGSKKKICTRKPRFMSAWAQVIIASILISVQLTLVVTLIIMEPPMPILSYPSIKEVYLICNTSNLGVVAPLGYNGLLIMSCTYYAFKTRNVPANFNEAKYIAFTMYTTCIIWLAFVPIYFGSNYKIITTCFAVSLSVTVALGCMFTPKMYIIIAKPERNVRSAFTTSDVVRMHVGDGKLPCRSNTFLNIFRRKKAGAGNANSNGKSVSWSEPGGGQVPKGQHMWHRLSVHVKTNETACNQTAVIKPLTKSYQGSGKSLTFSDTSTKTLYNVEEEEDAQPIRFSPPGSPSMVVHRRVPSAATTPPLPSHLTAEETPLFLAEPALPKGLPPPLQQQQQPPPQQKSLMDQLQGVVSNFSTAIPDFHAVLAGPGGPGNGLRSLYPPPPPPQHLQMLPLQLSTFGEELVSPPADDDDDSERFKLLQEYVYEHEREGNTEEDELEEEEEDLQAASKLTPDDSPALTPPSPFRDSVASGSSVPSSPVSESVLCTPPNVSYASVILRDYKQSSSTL
T1 sequence (P41594 21-1212): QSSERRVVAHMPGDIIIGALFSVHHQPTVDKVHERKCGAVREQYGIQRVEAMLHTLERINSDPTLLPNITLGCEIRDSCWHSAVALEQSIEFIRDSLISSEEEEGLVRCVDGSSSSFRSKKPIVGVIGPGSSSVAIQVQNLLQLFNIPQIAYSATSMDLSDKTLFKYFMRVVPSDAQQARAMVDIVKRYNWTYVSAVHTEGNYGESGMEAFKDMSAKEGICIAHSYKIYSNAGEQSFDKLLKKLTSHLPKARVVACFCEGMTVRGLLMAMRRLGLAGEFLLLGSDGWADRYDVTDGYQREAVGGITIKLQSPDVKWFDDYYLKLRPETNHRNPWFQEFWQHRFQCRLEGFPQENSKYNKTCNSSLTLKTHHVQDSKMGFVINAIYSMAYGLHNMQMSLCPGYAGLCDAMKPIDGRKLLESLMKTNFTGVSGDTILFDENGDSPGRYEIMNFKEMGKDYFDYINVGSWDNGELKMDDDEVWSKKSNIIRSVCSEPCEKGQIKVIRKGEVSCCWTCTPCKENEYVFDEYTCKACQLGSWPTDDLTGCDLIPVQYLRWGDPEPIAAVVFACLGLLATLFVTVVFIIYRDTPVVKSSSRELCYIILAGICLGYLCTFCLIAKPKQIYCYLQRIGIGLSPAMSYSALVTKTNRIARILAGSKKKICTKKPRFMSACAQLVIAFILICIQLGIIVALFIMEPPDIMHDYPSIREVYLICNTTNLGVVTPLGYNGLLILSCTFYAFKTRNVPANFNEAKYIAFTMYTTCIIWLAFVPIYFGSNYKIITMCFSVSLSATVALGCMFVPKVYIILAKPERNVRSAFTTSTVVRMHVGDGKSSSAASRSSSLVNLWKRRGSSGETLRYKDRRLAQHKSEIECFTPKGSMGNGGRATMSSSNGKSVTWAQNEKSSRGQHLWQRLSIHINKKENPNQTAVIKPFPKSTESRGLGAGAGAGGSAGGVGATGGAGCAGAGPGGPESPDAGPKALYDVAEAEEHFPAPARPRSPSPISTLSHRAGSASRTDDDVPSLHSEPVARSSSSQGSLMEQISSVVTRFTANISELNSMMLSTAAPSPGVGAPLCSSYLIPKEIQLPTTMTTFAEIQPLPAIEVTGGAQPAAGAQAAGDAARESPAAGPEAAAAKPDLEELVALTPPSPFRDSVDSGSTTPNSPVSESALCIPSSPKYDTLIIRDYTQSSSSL

EC50 (mGluR5; [4]): 1.25 µM
EC50 (mGluR1 [1]): 1.76 µM
SMILES: O=C(Nc1nc([N+](=O)[O-])cs1)c1cc(Cl)ccc1O

EC50 (mGluR5; [4]): 2.76 µM
EC50 (mGluR1 [1]): 6.32 µM
SMILES: CC(=O)Oc1ccc(Cl)cc1C(=O)Nc1nc([N+](=O)[O-])cs1

EC50 (mGluR1 [2]): 0.038 µM
EC50 (mGluR5; aequorin assay, agonist at EC80, 10000 = no activity observed at 10,000 nM, read-out: mGluR5 EC50): 0.062 µM
SMILES: O=C(Nc1ccc([N+](=O)[O-])cc1Cl)c1cc(Cl)ccc1O [Compound 1, 5-Chloro-N-(2-chloro-4-nitrophenyl)-2-hydroxybenzamide]
% MPE (0-100) 1 hr [3, 5]: 29.7%
Paw withdrawal thresholds (g; raw data) 1 hr [3, 5]: 125.8 g
Raw MPE (%) 1 hr [3, 5]: 31.3%
% MPE (0-100) 1 hr [3, 6]: 0.0% (3×) and 6.7% and 100.0% and 71.5%
Paw withdrawal thresholds (g; raw data) 1 hr [3, 6]: 90 g (2×) and 60 g and 105 g and 250 g and 160 g
Raw MPE (%) 1 hr [3, 6]: −10.9% (2×) and 6.7% and 177.6% and 71.5%
% MPE (0-100) 3 hrs [3, 5]: 39.9%
Paw withdrawal thresholds (g; raw data) 3 hrs [3, 5]: 130.0 g
Raw MPE (%) 3 hrs [3, 5]: 41.8%
% MPE (0-100) 3 hrs [3, 6]: 41.8% and 27.5% and 0.0% (2×) and 100.0% and 70.3%
Paw withdrawal thresholds (g; raw data) 3 hrs [3, 6]: 130 g and 120 g and 100 g (2×) and 180 g and 150 g
Raw MPE (%) 3 hrs [3, 6]: 41.8% and 27.5% and −1.0% (2×) and 113.1% and 70.3%
% MPE (0-100) 5 hrs [3, 5]: 34.7%
Paw withdrawal thresholds (g; raw data) 5 hrs [3, 5]: 122.5 g
Raw MPE (%) 5 hrs [3, 5]: 33.6%
% MPE (0-100) 5 hrs [3, 6]: 30.3% (2×) and 0.0% and 43.6% and 100.0% and 3.8%
Paw withdrawal thresholds (g; raw data) 5 hrs [3, 6]: 120 g (2×) and 70 g and 130 g and 195 g and 100 g
Raw MPE (%) 5 hrs [3, 6]: 30.3% (2×) and −36.0% and 43.6% and 129.9% and 3.8%
% MPE (0-100) 24 hrs [3, 5]: 28.6%
Paw withdrawal thresholds (g; raw data) 24 hrs [3, 5]: 117.5 g
Raw MPE (%) 24 hrs [3, 5]: 33.9%
% MPE (0-100) 24 hrs [3, 6]: 44.5% and 16.2% and 2.0% and 9.1% and 100.0% and 0.0%
Paw withdrawal thresholds (g; raw data) 24 hrs [3, 6]: 125 g and 105 g and 95 g and 100 g and 195 g and 85 g
Raw MPE (%) 24 hrs [3, 6]: 44.5% and 16.2% and 2.0% and 9.1% and 143.7% and −12.1%
AUC (0-5) [3, 5]: 159.1
AUC (0-5) [3, 6]: 113.9 and 85.3 and 0.0 and 53.7 and 450.0 and 251.7
% MPE (0-100) 1 hr [3, 7]: 80.7%
Paw withdrawal thresholds (g; raw data) 1 hr [3, 7]: 199.2 g
Raw MPE (%) 1 hr [3, 7]: 117.7%
% MPE (0-100) 1 hr [3, 8]: 100.0% (4×) and 48.0% and 36.2%
Paw withdrawal thresholds (g; raw data) 1 hr [3, 8]: 250 g (2×) and 190 g and 140 g and 130 g and 235 g
Raw MPE (%) 1 hr [3, 8]: 177.6% (2×) and 106.9% and 48.0% and 36.2% and 159.9%
% MPE (0-100) 3 hrs [3, 7]: 54.2%
Paw withdrawal thresholds (g; raw data) 3 hrs [3, 7]: 163.3 g
Raw MPE (%) 3 hrs [3, 7]: 89.3%
% MPE (0-100) 3 hrs [3, 8]: 100.0% (2×) and 70.3% and 0.0% and 41.8% and 13.2%
Paw withdrawal thresholds (g; raw data) 3 hrs [3, 8]: 250 g (2×) and 150 g and 90 g and 130 g and 110 g
Raw MPE (%) 3 hrs [3, 8]: 212.9% (2×) and 70.3% and −15.3% and 41.8% and 13.2%
% MPE (0-100) 5 hrs [3, 7]: 31.8%
Paw withdrawal thresholds (g; raw data) 5 hrs [3, 7]: 119.2 g
Raw MPE (%) 5 hrs [3, 7]: 29.2%
% MPE (0-100) 5 hrs [3, 8]: 100.0% and 43.6% (2×) and 3.8% and 0.0% (2×)
Paw withdrawal thresholds (g; raw data) 5 hrs [3, 8]: 180 g and 130 g (2×) and 100 g and 80 g and 95 g
Raw MPE (%) 5 hrs [3, 8]: 110.0% and 43.6% (2×) and 3.8% and −22.7% and −2.8%
% MPE (0-100) 24 hrs [3, 7]: 1.5%
Paw withdrawal thresholds (g; raw data) 24 hrs [3, 7]: 84.2 g
Raw MPE (%) 24 hrs [3, 7]: −13.3%
% MPE (0-100) 24 hrs [3, 8]: 0.0% (5×) and 9.1%
Paw withdrawal thresholds (g; raw data) 24 hrs [3, 8]: 90 g (3×) and 55 g and 100 g and 80 g
Raw MPE (%) 24 hrs [3, 8]: −5.1% (3×) and −54.6% and 9.1% and −19.2%
AUC (0-5) [3, 7]: 261.3
AUC (0-5) [3, 8]: 450.0 and 334.2 and 153.8 and 155.5 and 80.8 and 393.6
effectiveness in model of hyperalgesia vs 100 μg gabapentin ([3]; 49 μg intrathecal, rat): considerably more effective
reversing hyperalgesia, compared to gabapentin ([3]; 10 or 49 μg intrathecal vs 100 μg gabapentin, rat): essentially as effective or more effective as gabapentin
